Results reported in patent US10653658B2, “Biofilm inhibiting compositions enhancing weight gain in livestock” (Akeso Biomedical, Inc., priority 2015, dated 2020).

Columns and labels:
[1] = system: Campylobacter jejuni; test: Campylobacter carriage in chickens after oral challenge, caecal contents at day 35 (Example 9); type: in vivo; settings: 340 μM in the drinking water; oral challenge at day 14
Procedure: A study was performed to evaluate reduction of Campylobacter carriage in chickens using ferric lactate in one treatment group, and FeQ (Q-PLEX) in a second treatment group. A third treatment group served as a positive control. The ferric lactate and FeQ were administered to the treatment groups at a concentration of 340 μM in the drinking water. Each treatment group comprised 12 birds per pen. All three treatment groups were orally challenged with 10^5 cfu of Campylobacter jejuni at day 14 of the trial. At day 35 all birds were euthanized, and quantitative bacteriology performed on caecal contents.

[2] = system: Campylobacter; test: Campylobacter carriage in chickens, cfu/g of droppings and caeca at day 42 (Example 1); type: in vivo
Procedure: A study was performed to evaluate growth promotion and reduction of Campylobacter carriage using FeQ and FeTyr in Ross 308 male broilers with 7 treatment groups. Each treatment group comprised four replicates of 10 birds per pen (40 birds/treatment group and 4 pens of 10 birds/treatment group), with 2 control groups and 5 test groups. All the test groups and one of the control groups were exposed at day 20 of the trial to dirty litter, which tested positive for Campylobacter. This method was used to provide a more natural method to Campylobacter challenge the birds. Thus there was a positive control where one treatment group was challenged with Campylobacter and one negative control group where the birds were not challenged, and five treatment groups that were all challenged with Campylobacter. The total number of birds used in the 7 treatment groups was 280. Treatment group 1 was a negative control where birds just received the commercial feed, and were not challenged with dirty litter containing Campylobacter. Treatment group 2 was the positive control where the birds received the commercial feed, and were challenged with dirty litter containing Campylobacter at day 20. Treatment group 3 received 0.22 g/L of FeQ in their drinking water and 0.22 g/Kg FeQ in their feed during the entire trial, and was challenged with dirty litter containing Campylobacter at day 20. Treatment group 5 received 0.22 g/L of FeQ in their drinking water during the entire trial, and was challenged with dirty litter containing Campylobacter at day 20. Treatment group 6 received 0.22 g/kg FeQ in their feed during the entire trial, and was challenged with dirty litter containing Campylobacter at day 20. Treatment group 7 received 0.022 g/L FeQ in their drinking water during the entire trial, and was challenged with dirty litter containing Campylobacter at day 20. Treatment group 8 received 0.02 g/L FeTyr in their drinking water during the entire trial, and was challenged with dirty litter containing Campylobacter at day 20. The FeTyr was pre-dissolved in DMSO, and diluted to provide a solution of 0.02 g/L of FeTyr in water. (An additional treatment group 4 was terminated due to solubility issues.)
Prior to challenging the chickens with dirty litter containing Campylobacter at day 20, each pen was tested for Campylobacter using cloacal swabs. All pens tested negative for Campylobacter prior to the challenge. At day 20, litter, which was naturally Campylobacter-contaminated, was tested to confirm the presence of Campylobacter, and then added (approximately 2 kg/pen) to the litter in all pens except in pens for treatment group 1 (the negative control). At day 28, the pen litter was sampled to confirm the presence or absence of Campylobacter. At day 41 and 42, caecal samples were taken from 3 birds per pen (12 birds per treatment group) and tested for Campylobacter enumeration. At day 42, digesta, fecal samples, and caecal content was taken from all birds, and pooled per pen. Two birds per pen were also taken from treatment groups 1-3, euthanized, and blood samples taken. Samples were analyzed for blood chemistry, including analysis for alkaline phosphatase, aspartate amino transferase, alanine amino transferase, gamma-glutamyl transferase, lactate dehydrogenase, total protein, albumin, globulin, amylase and glucose.

O=C([O-])C1(O)CC(O)C(O)C(O)C1.O=C([O-])C1(O)CC(O)C(O)C(O)C1.O=C([O-])C1(O)CC(O)C(O)C(O)C1.[Fe+3] (centres unmarked) [FeQ, Ferric Quinate]
levels of Campylobacter in caeca at day 35 compared with positive control (FIG. 11) [1]: lower levels of Campylobacter in their caeca
Campylobacter cfu/g of bird droppings at day 42 (FIG. 3), low concentration ([2]; 0.022 g/L FeQ in water, treatment group 7, considered likely experimental error): less of an effect than the other treatment groups
Campylobacter cfu/g of caeca samples at day 42 (FIG. 4), low concentration ([2]; treatment group 7: 0.022 g/L FeQ in water): highly beneficial effect
Campylobacter cfu/g of caeca samples at day 42 compared with positive control (FIG. 4) ([2]; treatment groups 3 and 5-8): positive effect on reducing Campylobacter infection
Campylobacter cfu/g of bird droppings at day 42 compared with positive control (FIG. 3) ([2]; treatment groups 3 and 6-8): positive effect on reducing Campylobacter infection
